Laboratory results published in patent US7482008B1, “Human T cell reactive feline protein (TRFP) isolated from house dust and uses therefor” (Merck Patent GmbH, priority 1989, dated 2009).
Several values for one entry are separate records, joined by “and”; a condition that tells them apart may be missing. Equal values may be shown once.

Legend:
Balb/c mice [1] = experiment: Oral rChain 1, antibody response ELISA, protocol 2; assay type: in vivo, mouse
Procedure: Four groups of five age-matched Balb/c 6- to 10-week-old female mice (The Jackson Laboratory, Bar Harbor, Me.) were fed on days −7, −5 and −2 with 250 μg cleaved, purified, recombinant TRFP Chain 1 (rChain) (Groups 1 and 3) or with PBS (Groups 2 and 4). On day 0, the mice in Groups 1 and 2 were challenged with an intraperitoneal (i.p.) injection of 10 μg rChain 1 in alum, while the mice in Groups 3 and 4 were challenged on day 0 with an i.p. injection of 100 μg rChain 1 in CFA. […]
Subsequent incubations were for 1 hour at 37° C. The wells were washed with PBS containing 0.05% Tween 20 and blocked with 0.5% gelatin in PBS. Sera were diluted in PBS as noted in the individual assay and were incubated in triplicate on the washed plates. After incubation and washing, the bound mouse antibody was detected by incubation with biotinylated goat anti-mouse IgG (Southern Biotechnology Ass.). […] 3,3′,5,5′-Tetramethylbenzidine peroxidase substrate (Kirkegaard & Perry Labs) was used according to directions supplied, and resulting OD (450 nm) values were determined using an ELISA reader (Bio-Tek model 310, Winooski, Vt.). […]
(§1) Antigen-bound IgE was detected similarly except using a biotinylated rat monoclonal antibody specific for mouse IgE (Baniyash et al. (1984) Eur. J. Immunol. 14:799-807). […]

Balb/c mice [2] = experiment: Oral rChain 1, IgG and IgE response after repeated challenge, protocol 5; assay type: in vivo, mouse; details: oral 250 μg days -7, -5, -2
Procedure: Two groups of five age-matched Balb/c were fed on days −7, −5 and −2 with 250 μg rChain 1 (Group 1) or PBS (Group 2). On day 0, the mice were challenged with 10 μg rChain 1 on alum administered i.p., and on days 47 and 78, the mice were again challenged with 25 μg rChain 1 on alum administered i.p. The antibody response was measured by ELISA (see below).
Subsequent incubations were for 1 hour at 37° C. The wells were washed with PBS containing 0.05% Tween 20 and blocked with 0.5% gelatin in PBS. Sera were diluted in PBS as noted in the individual assay and were incubated in triplicate on the washed plates. After incubation and washing, the bound mouse antibody was detected by incubation with biotinylated goat anti-mouse IgG (Southern Biotechnology Ass.). Streptavidin conjugated to horseradish peroxidase (Southern Biotechnology Associates) was added to detect antigen-bound biotinylated antibody complexes. 3,3′,5,5′-Tetramethylbenzidine peroxidase substrate (Kirkegaard & Perry Labs) was used according to directions supplied, and resulting OD (450 nm) values were determined using an ELISA reader (Bio-Tek model 310, Winooski, Vt.). […]
as §1

[3] = tested on: BDF1 mice preimmunized with TRFP; experiment: ELISA of specific IgG binding of mouse sera to TRFP before and after tolerization; assay type: in vivo
Procedure: BDF1 mice were each immunized with 100 μg TRFP in 200 μl IFA (Incomplete Freund's Adjuvant) in a single site intraperitoneally. After four months, the mice were bled and grouped according to their anti-TRFP IgG antibody levels as follows. The mice were warmed with an infra-red lamp and bled through one of the tail veins by nicking the vein with a razor blade (Gilette Platinum Plus). The blood was allowed to drip into a serum separating tube (Microtainer, Becton-Dickenson) and allowed to clot. The sera was then separated from the clot by centrifugation at 13,000 rpm. The sera was stored at −20° C. until use. The sera was assayed for TRFP-specific IgG by ELISA. For the IgG assay, immunoaffinity purified TRFP was coated onto Nunc Polysorp 96-well plates by incubation of 50 μl/well of 2 μg/ml TRFP in PBS. Unless mentioned, each incubation step in this protocol was performed for 1 hour at 37° C. After rinsing with PBS, the wells were incubated with 0.5% gelatin in PBS to block excess binding to the plate. The plates were rinsed with PBS containing 0.05% Tween 20. […] After rinsing, the bound mouse antibody was detected by incubation with biotinylated goat anti-mouse IgG (Southern Biotechnology Associates) diluted 1/10000 in PBS. The plates were rinsed and streptavidin conjugated to horse radish peroxidase (Southern Bio. Ass.) diluted 1/10000 was added for 20 minutes and incubated at room temperature. TMB peroxidase substrate (Kirkegaard and Perry) was used according to directions supplied. The resulting O.D. values were read by an ELISA reader (Bio-Tek modal #310) at 450 nm to quantitate the complexes bound to TRFP protein on the plates. The mice were matched for O.D. of the developed ELISA wells using the 1/500 dilution of each sera and separated into two matched groups of three animals. The range of the values for the TRFP specific IgG of 1/500 dilution sera from these animals was between 1.7 and 2.2. […]

[4] = specific IgG binding to TRFP, 1/4500 dilution of sera, individual mice #1-#3

| Substance | IgE binding to rChain 1 (Balb/c mice [1]; 92 days after challenge, compared to PBS) | IgG response to rChain 1 (Balb/c mice [1]; oral administration, up to 100 days after treatment) | specific IgG and IgE responses after repeated challenge with rChain 1 in alum (Balb/c mice [2]) | quantity of antibody specific for TRFP ([3]; 20 days following tolerization) | ELISA O.D.-sera sampled after “tolerization and challenge [3, 4] | ELISA O.D.-sera sampled before “tolerization” and challenge [3, 4] |
| --- | --- | --- | --- | --- | --- | --- |
| recombinant chain 1: recombinant TRFP chain 1 expressed in E. coli | less IgE binding to rChain 1 | depressed level of IgG response | decreases specific IgG and IgE responses |  |  |  |
| peptide Y: amino acid residues 29-55 from chain 1 of TRFP (SEQ. ID. NO: 18) (KALPVVLENARILKNCVDAKMTEEDKE) |  |  |  | no significant change | 0.492 and 0.654 and 0.585 | 0.670 and 0.687 and 0.686 |
